Literature values as cited in patent US10314832B2, “β- and γ-diketones and γ-hydroxyketones as Wnt/β-catenin signaling pathway activators” (Samumed, LLC, priority 2010, dated 2019).

B1: Wnt3a: Wnt ligand protein; soluble peptide agonist of LRP5 and Fzd co-receptors (protein, UniProt P56704 19-352, looked up)
Protein Wnt-3a: SYPIWWSLAVGPQYSSLGSQPILCASIPGLVPKQLRFCRNYVEIMPSVAEGIKIGIQECQHQFRGRRWNCTTVHDSLAIFGPVLDKATRESAFVHAIASAGVAFAVTRSCAEGTAAICGCSSRHQGSPGKGWKWGGCSEDIEFGGMVSREFADARENRPDARSAMNRHNNEAGRQAIASHMHLKCKCHGLSGSCEVKTCWWSQPDFRAIGDFLKDKYDSASEMVVEKHRESRGWVETLRPRYTYFKVPTERDLVYYEASPNFCEPNPETGSFGTRDRTCNVSSHGIDGCDLLCCGRGHNARAERRREKCRCVFHWCCYVSCQECTRVYDVHTCK

Assays:
[1] = topical solution, patients with age-related hair loss; cited from earlier work
[2] = test system: dedifferentiated Müller glia; details: photoreceptor-damaged retina; cited from earlier work

Molecule	patients with moderate regrowth of hair [1]	increase in proliferation of dedifferentiated Müller glia [2] [fold]
Nc1cc(N2CCCCC2)nc(N)[n+]1[O-] [minoxidil]	less than 40%	–
B1	–	> 20
